Source: PubChem BioAssay (NCI)
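Growth conditions: 96-well plates. Treatment: test compound, 48 hours, 5 concentrations. Analysis: linear interpolation between bracketing concentrations; unreached endpoints set to highest concentration. At the TGI there is no net growth.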

Legend:
Assay in all cases: DTP human tumour cell line panel, 48 h
[1] = system: NCI-H522 lung
[2] = system: K-562 leukemia
[3] = system: KM12 colon
[4] = system: HT29 colon
[5] = system: HS 578T breast
[6] = system: HL-60(TB) leukemia
[7] = system: A549 NSCLC
[8] = system: RPMI-8226 leukemia
[9] = system: CCRF-CEM leukemia
[10] = system: SN12C renal
[11] = system: NCI-H226 lung

Row | SMILES | TGI [1] [µM] | TGI [2] [µM] | TGI [3] [µM] | TGI [4] [µM] | TGI [5] [µM] | TGI [6] [µM] | TGI [7] [µM] | TGI [8] [µM] | TGI [9] [µM] | TGI [10] [µM] | TGI [11] [µM]
1 | O=C1CCc2c3c(c4c([nH]c5ccccc54)c2CC1)C(=O)NC3=O | 9.3 | > 100 | 18.4 | 12.1 | > 100 | 17.2 | > 100 | 64.1 | > 100 | > 100 | 23.7
2 | CCN(CC)CCn1ncc2ccc3c(c(=O)c4cccnc4n3CCN(CC)CC)c21 | 2.35 | 3.33 | 4.01 | 3.13 | > 6 | 2.83 | > 10 | 4.21 | 1.82 | 8.15 | 5.44
3 | Nc1[nH]c(=O)nc2sc3c(c12)CCCC3 | > 100 | > 100 | > 100 | > 100 | 71.9 | > 100 | > 100 | > 100 | > 100 | > 100 | 88.8
4 | CCCCc1ccc(Nc2nc3c(ncn3C3OC(COC(C)=O)C(OC(C)=O)C3OC(C)=O)c(=O)[nH]2)cc1 (stereo unspecified) | 32.8 | 38.5 | 35.2 | 37.5 | 56 | 55.6 | > 100 | 48.9 | 35.1 | 42.3 | 60.6
5 | Cc1ccnc(NS(=O)(=O)c2ccc(NC(=O)c3ccc4nc5ccccc5c(Nc5ccc(S(=O)(=O)Nc6nccc(C)n6)cc5)c4c3)cc2)n1 | 87.4 | > 100 | > 100 | > 100 | > 100 | > 100 | > 100 | > 100 | > 100 | > 100 | > 100
6 | O=[N+]([O-])c1cc2n[nH]nc2c2nonc12 | 32.6 | > 100 | > 100 | > 100 | 58.8 | 61.3 | > 100 | > 100 | 59.9 | > 100 | 40.9
7 | CCOC(=O)C(SCCO)C(C(=O)OCC)n1ccc(N)nc1=O (stereo unspecified) | > 100 | > 100 | > 100 | > 100 | > 100 | > 100 | > 100 | > 100 | > 100 | > 100 | > 100
8 | CCCCCCCCCc1cc(O)c(O)cc1CCCCCCCCC | > 10 | > 10 | > 10 | > 10 | > 10 | > 10 | > 10 | > 10 | > 10 | > 10 | > 10
9 | COc1cc2c(cc1C)NC(=O)/C2=C/c1c(Cl)[nH]c2cc(C)c(OC)cc12 | 19.8 | > 41.6 | 15.5 | 17.6 | 46 | 3.39 | 28.7 | > 48.9 | 5.16 | 8.18 | 50.6
10 | NC(=O)c1cnc2sc3ccccc3n2c1=O | > 100 | > 100 | > 100 | > 100 | > 100 | > 100 | > 100 | > 100 | > 100 | > 100 | > 100
11 | Cc1nn2c(N)cc(=O)nc2nc1/C=C/c1ccc(N(C)C)cc1 | 7.62 | > 100 | > 100 | > 100 | > 100 | 0.0117 | > 100 | > 100 | 2.41 | > 100 | > 100
12 | NS(=O)(=O)c1ccc(NNC(=O)c2cccc3c(=O)c4ccccc4[nH]c23)cc1 | > 100 | > 100 | > 100 | > 100 | > 100 | > 100 | > 100 | > 100 | > 100 | > 100 | > 100
13 | CCOC(=O)c1ccc(N=C2SC(=S)N(c3ccc(F)cc3)C2=Nc2ccc(C(=O)OCC)cc2)cc1 | 19.1 | 47.3 | > 71.7 | 51.6 | 91.7 | 22.3 | > 84.9 | 51.3 | > 57.6 | 33.6 | 43.1
14 | CCN(CC)CCN1c2ccccc2Sc2ccc3ccccc3c21 | 27.9 | 15.7 | 19.7 | 12.3 | 32.6 | 15.1 | 27.8 | 10.7 | 15 | 24.4 | 19.1
15 | O=C(N/N=C(/COc1cccc(Cl)c1)N=Cc1ccncc1)c1ccncc1 | > 100 | > 100 | > 100 | > 100 | > 100 | > 100 | > 100 | > 100 | > 100 | > 100 | > 100
16 | Clc1cc2nc(C3CCCO3)[nH]c2cc1Cl (stereo unspecified) | 66 | > 100 | > 100 | > 100 | > 100 | > 100 | > 100 | > 100 | > 100 | > 100 | > 100
17 | CSC1=N/C(=C\c2cccs2)C(=O)N1CN1CCOCC1 | > 100 | > 100 | > 100 | > 100 | > 100 | > 100 | > 100 | > 100 | > 100 | > 100 | > 100
18 | CC1=C(C)C(=O)OC(C(C)(O)C2(O)CCC3(O)C4CC(Cl)C5(O)C(O)C=CC(=O)C5(C)C4CCC32C)C1 (stereo unspecified) | > 100 | > 100 | > 100 | > 100 | > 100 | 9.04 | > 100 | 47.3 | 53.4 | > 100 | > 100
19 | CCN(CC)CC(O)c1ccc2ccc3ccccc3c2c1 (stereo unspecified) | 31.9 | 32.5 | 29.1 | 25.2 | 41.9 | 30.1 | 31.4 | 38.2 | 45.3 | 32.1 | 29.5
20 | O=C1C(NS(=O)(=O)c2ccccc2)=C(n2cnc3ccccc32)C(=O)c2ccccc21 | 53.7 | > 100 | > 100 | > 100 | > 100 | > 100 | > 100 | > 100 | > 100 | > 100 | > 100
21 | O=C(CSc1nc2ccc(I)cc2c(=O)n1Cc1ccccc1)N/N=C/c1ccccc1 | 40 | > 100 | > 100 | > 100 | 9.09 | > 100 | > 100 | > 100 | > 100 | > 100 | 95.9
22 | CN1CN(c2ccccc2)C2(CCNCC2)C1=O | > 100 | > 100 | > 100 | > 100 | > 100 | > 100 | > 100 | > 100 | > 100 | > 100 | > 100
23 | O=c1oc2ncccc2n1Cc1ccc([N+](=O)[O-])cc1 | > 100 | > 100 | > 100 | > 100 | > 100 | > 100 | > 100 | > 100 | > 100 | > 100 | > 100
24 | CCCCC1Cc2cc(O)ccc2-c2n1c1cc(O)ccc1[n+]2C (stereo unspecified) (tested in a mixture with another compound) | > 47.4 | > 100 | > 100 | > 100 | > 51.4 | > 86.4 | > 100 | 75.1 | > 100 | > 100 | > 100
25 | Cc1c2c(c(C)c3c[n+](C)ccc13)Oc1ccccc1O2 | 17.1 | 35.4 | 6.42 | 68.2 | 12.9 | 39.4 | > 100 | 12.7 | 37.6 | > 42.4 | > 43.8
26 | O=C(Nc1ccc(Cl)cc1)c1cc(S(=O)(=O)Nc2n[nH]c(=O)[nH]2)c(SSc2cc(Cl)c(C(=O)Nc3ccc(Cl)cc3)cc2S(=O)(=O)Nc2n[nH]c(=O)[nH]2)cc1Cl | > 100 | > 100 | > 100 | > 100 | > 100 | > 100 | > 100 | > 100 | > 100 | > 100 | > 100
